# Counter-ions that a name gives are not always drawn. Like-named read-outs stand apart in the source and are kept apart here.
# Assays:
# [1] = test system: KU812 leukemia cells (Bcr-Abl); assay: Proliferation of KU812 cells, calcein assay by flow cytometry; assay type: cell-based; settings: Homo sapiens, KU812, 72 h, read-out: KU812 cells IC50 (proliferation)
# Experimental: The proliferation of KU812 cells was assayed using the calcein viability assay described in Assay 3 but adapted for quantification by flow cytometry, briefly as follows: cells were recovered from sub-confluent plates by trypsinization and re-plated at a density of 1,000 cells/well in 24 well plates and incubated 24 hours to allow adherence. The media (RPMI-1640 supplemented with 10% FCS and Pen/Strep) was aspirated from each well and replaced with media containing the compound at a range from 0 to 0.250 μM. The plates were incubated for 3 days corresponding to approximately three cell cycles. Cellular viability was determined with the Calcein AM assay as follows. The cells were washed twice in PBS and incubated with 5 μM Calcein AM/PBS for 75 minutes before determining fluorescent units with a fluorescent plate reader. The Calcein AM assay was adapted for the flow cytometer by including an additional 1:16,000 dilution of the Calcein AM in PBS of which 200 ul was added to each sample of cells.
# JNK2α2 = molecular target: T1, JNK2α2 (Homo sapiens, UniProt P45984); assay: JNK2α2 kinase assay; assay type: biochemical
# T1 construct: purchased Upstate 14-329
# Experimental: • 1. 10× Reaction Buffer: 500 mM Tris-HCl, pH 7.5, 1 mM EGTA, 1% 2-mercaptoethanol. • 2. ATF2 (amino acids 19-69) (Catalog #12-367): Prepare a 30 μM stock. Use 2.5 μl per assay point for a final concentration of 3 μM per assay. • 3. JNK2α2/SAPK1a, active: Dilute to 4-40 ng/μl with 1× Reaction Buffer containing 0.03% Brij-35. Use 2.5 μl per assay point. • 4. […] [γ-^32P]ATP: Stock 1 mCi/100 μl (3000 Ci/mmol, obtained from PerkinElmer, Catalog #BLU002A). Make 10 μl aliquots (100 μCi/vial). Before starting the assay, dilute the Magnesium/ATP Cocktail 1:1 with sterile, distilled water. Then dilute an aliquot of [γ-^32P]ATP to 1 μCi/μl with 90 μl of the diluted Magnesium/ATP Cocktail. […]
# • 1. Add 2.5 μl of 10× Reaction Buffer to a microcentrifuge tube. • 2. Add 2.5 μl […] of ATF2 (amino acids 19-69). • 3. Add 2.5 μl (10-100 ng) of JNK2α2/SAPK1a, active. • 4. Add 7.5 μl of sterile, distilled water. • 5. Add 10 μl of the diluted [γ-^32P]ATP solution. • 6. Incubate with agitation for 10 minutes at 30° C. • 7. Transfer a 20 μl aliquot onto the center of a 2 cm×2 cm P81 paper square (Catalog #20-134). • 8. Wash the paper squares three times with 0.75% phosphoric acid for 5 minutes. • 9. Wash the paper squares once for 5 minutes with acetone. • 10. Transfer the paper squares to a scintillation vial and add 5 ml scintillation cocktail. • 11. Read in scintillation counter. Compare the cpm of enzyme samples to the cpm of control samples that contain no enzyme (background control).
# Fyn = molecular target: T2, Fyn (Homo sapiens, UniProt P06241); assay: Fyn kinase assay; assay type: biochemical
# T2 construct: purchased Upstate 14-441
# Experimental: • 1. Assay Buffer: 200 mM Tris-HCl pH 7.5, 0.4 mM EGTA, 0.4 mM sodium orthovanadate. • 2. Magnesium/ATP Cocktail (Catalog #20-113): 500 μM cold ATP and 75 mM magnesium chloride in 20 mM MOPS, pH 7.2, 25 mM α-glycerol phosphate, 5 mM EGTA, 1 mM sodium orthovanadate, 1 mM dithiothreitol. • 3. [γ-^32P]ATP: Stock 1 mCi/100 μl (3000 Ci/mmol, obtained from DuPont-NEN). Make 10 μl aliquots (100 μCi/vial). Before starting the assay, dilute an aliquot with 90 μl of Magnesium/ATP Cocktail. • 4. Enzyme Dilution Buffer: 20 mM MOPS pH 7.5, 1 mM EDTA, 0.01% Brij-35, 5% glycerol, 0.1% β-mercaptoethanol, 1 mg/ml BSA. • 5. Fyn: Dilute with Enzyme Dilution Buffer to prepare a 4 ng-40 ng/μl stock. Use 2.5 μl per assay point. • 6. Src Substrate Peptide (Catalog #12-140): Dilute to 2.5 mM with distilled water. Use 2.5 μl per say point.
# • 1. Add 6.25 μl of Assay Buffer per assay. • 2. Add 2.5 μl of diluted Fyn. • 3. Add 2.5 μl Src Substrate peptide (250 μM). • 4. Add 3.75 μl distilled water. • 5. Add 10 μl of the [γ-^32P]ATP solution. • 6. Incubate for 10 minutes at 30° C. • 7. Transfer a 20 μl aliquot onto the center of a 2 cm×2 cm P81 paper. • 8. Wash assay squares three times with 0.75% phosphoric acid for 5 minutes per wash. • 9. Wash assay squares once with acetone for 1-2 minutes. • 10. Transfer assay squares to a scintillation vial and add 1 ml scintillation cocktail. • 11. Read in scintillation counter. Compare cpm of enzyme samples to cpm of control samples that contain no enzyme (background control).
# 1A9-PTX10 = assay: SRB cytotoxicity, tubulin mutated paclitaxel-resistant cells; assay type: cell-based, human; settings: for IC50: Homo sapiens, 1A9/ptx-10, 72 h, SRB; for RR (relative resistance) 1A9-PTX10 vs 1A9: ratio of mean IC50 resistant/sensitive
# Experimental: In these experiments, the P-glycoprotein expressing NCI-Adr resistant subline (Vickers et al., 1989. Mol Endocrinology 3 (1):157-164) was used. […] Briefly, cells were plated in 96 well dishes 24 hours prior to compound addition. Where noted, they were exposed to verapamil for 4 hours prior to compound addition and then throughout the treatment period (72 hours). The assay was terminated with the addition of cold TCA to a final concentration of 10% and the plates were incubated for one hour at 4° C. The plates were then washed 5 times with water and 100 μl of a Sulforhodamine B solution (4%) was added to each well. The plate was then incubated for 10 minutes at room temperature before removal of unbound dye by washing with 1% acetic acid.
# The tubulin mutated, paclitaxel-resistant human ovarian carcinoma cell line 1A9-PTX10 and its parental paclitaxel-sensitive cell line 1A9 were derived from the A2780 human ovarian carcinoma cell line (J Biol Chem (1997) 272, 17118-17124).
# cells = assay: Apoptosis detection (TUNEL staining, PARP cleavage); assay type: cell-based; settings: 72 hours at 5× of the IC50 concentration
# Experimental: In addition, PARP cleavage was also observed. Similarly, cells incubated with B16 are 90% TUNEL positive. Such assays can be used for apoptosis detection in any cells in contact with the subject compounds.
# panel of Ser/Thr kinases = assay: Kinase panel, Ser/Thr kinases (average); assay type: biochemical; settings: average over panel; for IC50: read-out: average IC50 among non-CDK Ser/Thr kinases
# [2] = kinase panel, 10 μM ATP, read-out: JNK2α2 IC50
# [3] = read-out: MAPK9 Inhibition (IC50)
# [4] = read-out: FYN Inhibition (IC50)
# T1 sequence (P45984 whole entry): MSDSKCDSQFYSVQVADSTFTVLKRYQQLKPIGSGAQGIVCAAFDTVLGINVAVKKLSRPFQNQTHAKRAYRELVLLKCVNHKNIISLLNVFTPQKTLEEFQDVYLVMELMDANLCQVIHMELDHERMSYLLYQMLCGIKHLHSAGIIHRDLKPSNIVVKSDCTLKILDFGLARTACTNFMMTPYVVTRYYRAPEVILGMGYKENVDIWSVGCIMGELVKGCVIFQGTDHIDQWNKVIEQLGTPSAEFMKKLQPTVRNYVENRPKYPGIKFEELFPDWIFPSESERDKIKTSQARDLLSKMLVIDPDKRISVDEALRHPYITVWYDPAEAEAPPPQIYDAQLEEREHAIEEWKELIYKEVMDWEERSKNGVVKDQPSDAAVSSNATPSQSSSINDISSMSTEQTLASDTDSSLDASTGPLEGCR
# T2 sequence (P06241 whole entry): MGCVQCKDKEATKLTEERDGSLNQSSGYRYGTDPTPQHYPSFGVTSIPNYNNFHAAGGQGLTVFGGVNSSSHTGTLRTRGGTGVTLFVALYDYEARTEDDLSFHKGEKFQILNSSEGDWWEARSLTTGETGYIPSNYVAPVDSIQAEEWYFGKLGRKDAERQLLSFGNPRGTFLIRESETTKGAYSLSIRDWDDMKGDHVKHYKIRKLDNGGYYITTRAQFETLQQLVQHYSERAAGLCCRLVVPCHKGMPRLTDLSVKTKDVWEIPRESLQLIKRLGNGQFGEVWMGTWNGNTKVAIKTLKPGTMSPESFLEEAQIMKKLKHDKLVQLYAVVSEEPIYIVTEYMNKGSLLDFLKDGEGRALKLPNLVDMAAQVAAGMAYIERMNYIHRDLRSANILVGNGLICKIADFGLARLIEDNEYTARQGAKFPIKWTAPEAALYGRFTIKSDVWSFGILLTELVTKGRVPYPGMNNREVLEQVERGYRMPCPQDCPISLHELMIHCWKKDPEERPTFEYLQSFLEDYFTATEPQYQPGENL
SMILES,IC50 [1],IC50 (JNK2α2; [2]),IC50 (JNK2α2; [3]),IC50 (Fyn; [4]),IC50 (1A9-PTX10),RR (relative resistance) 1A9-PTX10 vs 1A9 (1A9-PTX10),PARP cleavage (cells),TUNEL positive cells (cells),average IC50 among non-CDK Ser/Thr kinases (panel of Ser/Thr kinases),IC50 (panel of Ser/Thr kinases),"IC50 ([1]; 3 days, calcein AM, flow cytometry)","IC50 (Fyn; kinase panel, 10 μM ATP, read-out: Fyn IC50)"
CC(C)N1CCN(C(=O)COc2ccc(-c3n[nH]c4c3C(=O)c3c(NC(=O)NN5CCOCC5)cccc3-4)cc2)CC1 [Compound A37],85 nM,10 to 100 nM,< 50 nM,< 100 nM,44.3 nM,3.3,observed,about 60%,about 29 nM,44 nM,–,–
"COCCN1CCN(Cc2ccc(-c3n[nH]c4c3C(=O)c3c(NC(=O)NN5CCOCC5)cccc3-4)cc2)CC1 [Compound B16, N-[3-(4-{[4-(2-methoxyethyl)piperazinyl]methyl}phenyl)-4-oxoindeno[2,3-d]pyrazol-5-yl](morpholin-4-ylamino)carboxamide dihydrochloride]",–,< 100 nM,< 100 nM,< 50 nM,25 nM,2.3,–,90%,–,~50 nM,54 nM,< 100 nM

# Reference: patent US20080146555A1, “Uses of Kinase Inhibitors and Compositions Thereof” (GPC Biotech, Inc, priority 2004, published 2008)
